Source: patent publication US20100222332A1, “PYRAZOLO-PYRAZINES DERIVATIVES USED AS G PROTEIN INHIBITORS” (Ipsen Pharma S.A.S., priority 2007, published 2010)
pIC50: −log10 of the molar value. Where a name gives a salt, the structure may show the parent alone. Read-outs that look alike come from different tables or passages of the source.

What was measured:
Assay type in all cases: cell-based
[1] = tested on: DU145 (human prostate cancer cells); assay: Anti-proliferative activity on DU145 cell line (WST1 colorimetric test); conditions: DU-145, treated for 96 hours, read-out: IC50 on the cell proliferation of the DU145 lines
Protocol: (§1) By way of example, the effect of a treatment on three human cell lines DU145, LNCaP and A2058 with the compounds of the examples described previously will be studied. The cell lines DU145 and LNCaP (human prostate cancer cells) and A2058 (human melanoma cancer cells) were acquired from the American Tissue Culture Collection (Rockville, Md., USA). The cells placed in 80 μl of Dulbecco's Modified Eagle medium (Gibco-Brl, Cergy-Pontoise, France) completed with 10% foetal calf serum inactivated by heating (Gibco-Brl, Cergy-Pontoise, France), 50000 units/l of penicillin and 50 mg/l streptomycin (Gibco-Brl, Cergy-Pontoise, France), and 2 mM of glutamin (Gibco-Brl, Cergy-Pontoise, France) were seeded on a 96-well plate on day 0. The cells were treated on day 1 for 96 hours with increasing concentrations of each of the compounds to be tested up to 10 μM. At the end of this period, the quantification of the cell proliferation is evaluated by a colorimetric test based on the cleavage of the tetrazolium salt WST1 by mitochondrial dehydrogenases in the viable cells leading to the formation of formazan (Boehringer Mannheim, Meylan, France). These tests are carried out in duplicate with 8 determinations per tested concentration. For each compound to be tested, the values included in the linear part of the sigmoid were retained for linear regression analysis and used in order to estimate the inhibitory concentration IC50. The products are solubilized in dimethylsulphoxide (DMSO) at 10^−2 M and finally used in culture with 0.1% DMSO.

[2] = tested on: LNCaP (human prostate cancer cells); assay: Anti-proliferative activity on LNCaP cell line (WST1 colorimetric test); conditions: treated for 96 hours, read-out: IC50 on the cell proliferation of the LNCaP lines
Protocol: as §1

[3] = tested on: A2058 (human melanoma cancer cells); assay: Anti-proliferative activity on A2058 cell line (WST1 colorimetric test); conditions: treated for 96 hours, bound given in mM, read-out: IC50 on the cell proliferation of the A2058 lines
Protocol: as §1

| pIC50 ([1]; unit inferred) | pIC50 [2] | IC50 [3] [mM] | pIC50 [1] | Compound |
| --- | --- | --- | --- | --- |
| ≥ 4.82 | ≥ 5.00 | ≤ 0.01 |  | CCCCCC1c2cc(-c3ccccc3)nn2CCN1C(=O)[C@@H](N)CSSC[C@H](N)C(=O)N1CCn2nc(-c3ccccc3)cc2C1CCCCC (mixture of isomers) [Example 20, (2R)-3-({(2R)-2-amino-3-oxo-3-[(4RS)-4-pentyl-2-phenyl-6,7-dihydropyrazolo[1,5-a]pyrazin-5(4H)-yl]propyl}dithio)-1-oxo-1-[(4RS)-4-pentyl-2-phenyl-6,7-dihydropyrazolo[1,5-a]pyrazin-5(4H)-yl]propan-2-amine hydrochloride] |
|  | ≥ 5.30 | ≤ 0.01 | ≥ 4.70 | CCCCC1c2cc(-c3ccccc3)nn2CCN1C(=O)[C@@H](N)CSSC[C@H](N)C(=O)N1CCn2nc(-c3ccccc3)cc2C1CCCC (mixture of isomers) [Example 21, (2R)-3-({(2R)-2-amino-3-[(4RS)-4-butyl-2-phenyl-6,7-dihydropyrazolo[1,5-a]pyrazin-5(4H)-yl]-3-oxopropyl}dithio)-1-[(4RS)-4-butyl-2-phenyl-6,7-dihydropyrazolo[1,5-a]pyrazin-5(4H)-yl]-1-oxopropan-2-amine hydrochloride] |
|  | ≥ 6.00 | ≤ 0.01 | ≥ 4.70 | N[C@@H](CSSC[C@H](N)C(=O)N1CCn2nc(-c3ccc(Cl)cc3Cl)cc2C1CCc1ccccc1)C(=O)N1CCn2nc(-c3ccc(Cl)cc3Cl)cc2C1CCc1ccccc1 (mixture of isomers) [Example 22, (2R)-3-({(2R)-2-amino-3-[(4RS)-2-(2,4-dichlorophenyl)-4-(2-phenylethyl)-6,7-dihydropyrazolo[1,5-a]pyrazin-5(4H)-yl]-3-oxopropyl}dithio)-1-[(4RS)-2-(2,4-dichlorophenyl)-4-(2-phenylethyl)-6,7-dihydropyrazolo[1,5-a]pyrazin-5(4H)-yl]-1-oxopropan-2-amine hydrochloride] |
| ≥ 4.82 | ≥ 6.00 | ≤ 0.01 |  | N[C@@H](CSSC[C@H](N)C(=O)N1CCn2nc(-c3ccccc3)cc2[C@@H]1CC1CCCCC1)C(=O)N1CCn2nc(-c3ccccc3)cc2[C@@H]1CC1CCCCC1 [Example 24, (2R)-3-({(2R)-2-amino-3-[(4S)-4-(cyclohexylmethyl)-2-phenyl-6,7-dihydropyrazolo[1,5-a]pyrazin-5(4H)-yl]-3-oxopropyl}dithio)-1-[(4S)-4-(cyclohexylmethyl)-2-phenyl-6,7-dihydropyrazolo[1,5-a]pyrazin-5(4H)-yl]-1-oxopropan-2-amine hydrochloride] |
